Experimental data as given in patent publication US11352372B2, “Benzimidamides compounds comprising an oxaborinin ring” (INSTITUT NATIONAL DE LA SANTÉ ET DE LA RECHERCHE MÉDICALE …, priority 2018, dated 2022).
Counter-ions that a name gives are not always drawn.

What follows are compounds tested against T1, human kallikrein 5 recombinant enzyme (KLK5) (Homo sapiens, UniProt Q9Y337) (assay: Kinetic FLINT KLK5 assay). Settings: 7.5 nM KLK5, 9 uM (Tos-Gly-Pro-Arg)2[R110] substrate, pH 8; each compound tested more than once.
T1 construct: The cleaved protein was then further purified on a 1 mL Heparin HP HITRAP column; 6His (cleaved yes); FLAG (cleaved yes); made in house; host or cells: Spodoptera frugiperda Super 9 insect cells (baculovirus, BAC-TO-BAC)
T1 sequence (Q9Y337 67-293 limits assumed): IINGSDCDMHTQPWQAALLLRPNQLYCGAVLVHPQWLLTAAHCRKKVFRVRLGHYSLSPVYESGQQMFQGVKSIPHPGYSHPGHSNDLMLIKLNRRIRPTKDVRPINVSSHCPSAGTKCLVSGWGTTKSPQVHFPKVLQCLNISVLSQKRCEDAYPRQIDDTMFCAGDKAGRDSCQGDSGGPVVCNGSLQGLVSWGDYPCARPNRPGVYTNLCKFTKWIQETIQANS
Type: biochemical
Procedure: Recombinant KLK5 protein was generated from a recombinant baculovirus using the BAC-TO-BAC system (INVITROGEN) (pFastBac_hKLK5_6His-Q-FLAG) expressed in 5 L of Spodoptera frugiperda Super 9 insect cells with a viral infection rate of 1.0. The protein was secreted into HYCLONE SFX growth media (GE HEALTHCARE) from which it was extracted on a 5 mL HISTRAP EXCEL column (GE HEALTHCARE). The column was washed with 500 mM NaCl, 20 mM Tris pH 7.4 buffer and the protein eluted using 500 mM imidazole in 250 mM NaCl, 20 mM Tris pH 7.4 buffer. The eluent was captured on a 5 mL ANTI-FLAG M2 Affinity Gel column (SIGMA). KLK5 was eluted by competing off the bound protein with 0.2 mg/mL FLAG peptide (SIGMA) in 50 mM NaCl, 20 mM Tris-HCl pH 7.4 buffer. 1 M CaCl2 was added to the pooled fractions to a final concentration 2 mM and these were treated with 0.1 U of enterokinase (NOVAGEN) per μg of target protein. The proteins were incubated at room temperature for ˜48 h. The cleaved protein was then further purified on a 1 mL Heparin HP HITRAP column (GE HEALTHCARE) in 20 mM MOPS, pH 6.8 buffer, washed with 100 mM NaCl in 20 mM MOPS, pH 6.8 buffer and eluted with 700 mM NaCl in this buffer. Fractions containing KLK5 were pooled and concentrated using an AMICON concentrator with a molecular weight cut off of 10000 Da. For cryoprotection, glycerol was added to a final concentration of 50%. All purifications were carried out using a semi-automated ÄKTA systems from GE HEALTHCARE.
11 point, 3-fold serial dilutions of each supporting compound were prepared in DMSO and 50 nL of these solutions were dispensed into black LV 384-well plates (GREINER BIO-ONE, Stonehouse, UK) using an ECHO 555 acoustic dispenser (LABCYTE, Sunnyvale, Calif.). This gave a final assay concentration range between 10 μM and […] in 5 μL final assay volume. 50 nL DMSO was dispensed into columns 6 and 18 for high and low controls, respectively. The assay plates were sealed and stored at 4° C. until required.
Conditions for the assay of human kallikrein 5 recombinant enzyme (KLK5), were 100 mM sodium phosphate, pH 8, 1 mM CHAPS, 7.5 nM KLK5 enzyme (see above for preparation), 9 uM peptide substrate ((Tos-Gly-Pro-Arg)2[R110].2TFA) in a total reaction volume of 5 μL.
Assays were performed by initially dispensing 2.5 μL of an enzyme solution (15 nM KLK5 in sodium phosphate, pH 8, 1 mM CHAPS) into all wells of the assay plate (except for column 18) then, 2.5 μL of buffer to column 18 (to generate low controls). Reactions were initiated by addition of 2.5 μL of substrate solution [18 uM (Tos-Gly-Pro-Arg)2[R110].2TFA (Cambridge Research Biochemicals) in sodium phosphate, pH 8, 1 mM CHAPS] to all wells. Plates were immediately centrifuged to reach 1000 rpm before transfer to the reader. All additions were made using a MULTIDROP COMBI dispenser (THERMO FISHER SCIENTIFIC). The assay plates were transferred to a PERKIN ELMER VIEWLUX. The plates were excited at 485 nm and the rates of Rhodamine110 fluorecent emission measured at 535 nm, following cleavage of the substrate by KLK5. Ten measurements were taken over 5 minutes with a read interval of 30 seconds.
From the raw data, the enzyme reaction rates were calculated as relative fluorescence units (RFU). Using the 10 reads collected, per well, a straight line was fitted through data. Initial rates were calculated from the slope of the reaction progress curves. The rate data was normalised to % inhibition between high controls in column 6 (0% inhibition) and low controls in column 18 (100% inhibition). Dose response curves were fitted using the IDBS Primary module fit. The data were fitted by means of a four-parameter fit logistic:
Where x is the inhibitor concentration, y is inhibition (%), A is the minimum response, D is the maximum response, C is the IC50 for the curve and B is the Hill slope. The −log(IC50) gives the pIC50.

| average pIC50 | SMILES |
| --- | --- |
| 8.5 | Cl.N=C(N)c1ccc(C2Cc3ccc(C(F)(F)F)cc3B(O)O2)cc1OCc1cccnc1 (centres unmarked) [Compound 1, 4-(1-Hydroxy-7-(trifluoromethyl)-3,4-dihydro-1H-benzo[c][1,2]oxaborinin-3-yl)-2-(pyridin-3-ylmethoxy)benzimidamide hydrochloride salt] |
| 8.2 | Cl.N=C(N)c1ccc(C2Cc3ccccc3B(O)O2)cc1OCc1cccnc1 (centres unmarked) [Compound 8, 4-(1-hydroxy-3,4-dihydro-1H-benzo[c][1,2]oxaborinin-3-yl)-2-(pyridin-3-ylmethoxy)benzimidamide] |
| 8.1 | Cl.N=C(N)c1ccc(C2Cc3cc(Cl)c(F)cc3B(O)O2)cc1OCc1cccnc1 (centres unmarked) [Compound 7, 4-(6-chloro-7-fluoro-1-hydroxy-3,4-dihydro-1H-benzo[c][1,2]oxaborinin-3-yl)-2-(pyridin-3-ylmethoxy)benzimidamide] |

Same assay, conditions: 7.5 nM KLK5, 9 uM (Tos-Gly-Pro-Arg)2[R110] substrate, pH 8; each compound tested more than once; read-out: average pIC50 (converted)

| IC50 [nM] | SMILES |
| --- | --- |
| 3.98 | N=C(N)c1ccc([C@H]2Cc3ccc(C(F)(F)F)cc3B(O)O2)cc1OCc1cccnc1 [Compound 2, (R)-4-(1-hydroxy-7-(trifluoromethyl)-3,4-dihydro-1H-benzo[c][1,2]oxaborinin-3-yl)-2-(pyridin-3-ylmethoxy)benzimidamide hydrochloride salt] |
| 3.98 | N=C(N)c1ccc([C@@H]2Cc3ccc(C(F)(F)F)cc3B(O)O2)cc1OCc1cccnc1 [Compound 4] |
| 39.8 | N=C(N)c1ccc([C@H]2Cc3ccc(C(F)(F)F)cc3B(O)O2)cc1OCc1cccnc1 [Compound 3, (R)-4-(1-hydroxy-7-(trifluoromethyl)-3,4-dihydro-1H-benzo[c][1,2]oxaborinin-3-yl)-2-(pyridin-3-ylmethoxy)benzimidamide] |

More lines, now with the values behind:

| SMILES | IC50 [nM] |
| --- | --- |
| N=C(N)c1ccc(C2Cc3ccc(C(F)(F)F)cc3B(O)O2)cc1OCc1cccc(Cl)c1 (centres unmarked) [Compound 5, 2-((3-chlorobenzyl)oxy)-4-(1-hydroxy-7-(trifluoromethyl)-3,4-dihydro-1H-benzo[c][1,2]oxaborinin-3-yl)benzimidamide] | 7.94 |
| N=C(N)c1ccc(C2Cc3ccc(C(F)(F)F)cc3B(O)O2)cc1 (centres unmarked) [Compound 6, 4-(1-hydroxy-7-(trifluoromethyl)-3,4-dihydro-1H-benzo[c][1,2]oxaborinin-3-yl)benzimidamide] | 10 |
